Measured values as given in patent US20240300894A1, “PRODRUGS OF KV7 CHANNEL OPENERS” (Xyzagen, Inc., priority 2021, published 2024).

What was measured:
[1] = Pharmacokinetics of ezogabine prodrugs in mouse (SC, PO); conditions: male mice, PO 20 mg/kg, plasma
Experimental: (§1) Blood was diluted by 10% with these stabilizers.
(§2) Extraction of the molecules was conducted by taking a 50 uL aliquot of plasma and adding 200 uL of acetonitrile containing 200 ng/mL tolbutamide as the internal standard. Samples were precipitated in a 96 well plate, centrifuges and an aliquot transferred to a new plate, dried down under heat and nitrogen and then reconstituted in the initial mobile phase conditions of the LC-MS/MS method. […] A standard curve was prepared from 5000 ng/mL to 1 ng/mL for each analyte. Concentration data from the bioanalytical run was analyzed by Phoenix Winnonlin version 8 for noncompartmental sparse sampling PK analysis, plotting of concentration time curves and tabulation of PK parameters.
Animals were asphyxiated by carbon dioxide gas, blood was collected by cardiac stick and they were euthanized by cervical dislocation.

[2] = in solvent, exposed to light; known; cited from earlier work
[3] = Acid and organic solution stability, HPLC-UV 250 nm; conditions: for Colour of solution: by Day 9; for Degradation / conversion to ezogabine in solution: up to 3 weeks, acidic solutions and organic solvents; for Ezogabine Area: room temp., normal light
Experimental: An HPLC-UV Vis method was developed using 0.1% Formic acid in water as mobile phase A and 0.1% Formic acid in acetonitrile as mobile Phase B. A gradient method was developed ramping from 10% A to 90% B over 8 minutes and then returning to 10% A at 8.5 minutes on a 4.6×50 mm Zorbax C-18 column. Injections of 10 uL of stability solutions were injected for analyte detection.
[…] Aliquots were collected at serial time points and then diluted to a nominal concentration of 100 ug/mL for injection to the HPLC and 250 nm monitored by the diode array detector. Data at approximately 10 days is presented.
Aliquots were collected at serial time points and then diluted to a nominal concentration of 100 ug/mL for injection to the HPLC and 250 nm monitored by the diode array detector.
(§3) It was also evaluated at 2 N HCl at 37° C. Aliquots were collected at serial time points and then diluted to a nominal concentration of 100 ug/mL for injection to the HPLC and 250 nm monitored by the diode array detector.
as §3, §3, §3

[4] = human, in vivo; cited from earlier work
[5] = Pharmacokinetics of ezogabine prodrugs in rat (IV, IM, PO); conditions: male Sprague Dawley rats, PO 20 mg/kg
Experimental: as §1
as §2, with “noncompartmental” for “noncompartmental sparse sampling”
150 uL of blood were collected at predesignated time points. At completion of the study animals were asphyxiated by carbon dioxide gas and exsanguinated for euthanasia.

[6] = tested on: CCI model of neuropathic pain; experiment: CCI model of neuropathic pain (pin prick, von Frey); format: in vivo, rat; conditions: male Sprague Dawley rats
Experimental: Compound 3 was tested for reversal of mechanical hypersensitivity to the pin prick test for hindlimb paw withdraw and the von Frey hairs for gram force mechanical allodynia in the CCI model of neuropathic pain. Male Sprague Dawley rats (n=8/group) were tested for baseline sensitivity on Day 1 (ipsilateral and contralateral paws) and administered XYG-203 orally; 40 mg/kg on Day 1, 20 mg/kg Day 3, 10 mg/kg Day 5, 5 mg/kg Day 7, 1 mg/kg Day 10 and baseline on Day 12. Mechanical hypersensitivity was tested 1 h after pretreatment. Data (mean±SD) were analyzed with a repeated measures ANOVA with Dunnet's adjustment for multiple comparisons.

[7] = Rat PK at equimolar dose to Ezogabine in 0.5% methylcellulose; conditions: for AUClast/D, analyte = dosed prodrug: male, rat, in vivo, 20 mg/kg; for Exposure of ezogabine compared with ezogabine itself (dose normalized AUC): rats, equimolar dose to Ezogabine (20 mg/kg)
Experimental: (§4) Blood samples were collected at the same time points over 24 hours to generate a concentration time profile. Two male rats were dosed per group. Plasma samples were analyzed by LC/MS/MS and the resulting concentration time profiles and PK parameters are provided.
as §4, §4

[8] = Benchtop solution stability exposed to light, HPLC-UV 230 nm; format: physicochemical
Experimental: Compounds in solvent were left on the benchtop exposed to light for up to 7 days since it is known that Compound 1 will degrade with light within 3-7 days.
Stability was assessed by taking an aliquot from the solubility vials at each test day. A single replicate was injected for each test condition.
Samples were injected onto an HPLC system with an aqueous mobile phase and acetonitrile organic phase and compounds were separated on a C8 50×2 mm column. Wavelength 230 nm was monitored for absorption and integrated for peak area while the mass spectrometer was used to confirm mass. Samples were tested on Day 1 and on subsequent days through Day 7.

[9] = Drug concentration analysis after MES in CF-1 mice; conditions: for Plasma concentration of Compound 1 relative to administration of Compound 1 alone: CF-1, mouse, in vivo, ip
Source text: (§5) Each male CF-1 mouse provided one data point in the MES assay and one data point in the concentration analysis. There were 8 mice per time point.

[10] = tested on: MES Induced Seizures; experiment: Maximal electroshock (MES) test in SD rats; format: in vivo, rat; conditions: IM 75 mg/kg
Experimental: All treatments were at 0.083, 0.25, 0.5, 1, 2, 4, and 8 hours prior to the administration of MES test, where 6 seconds where 6 seconds without a seizure was considered protected.

[11] = tested on: 5% formalin intraplantar injection; experiment: Formalin inflammatory model (hind paw flicks/licks); format: in vivo, mouse; conditions: 100 mg/kg in water SC 30 minutes before 5% formalin; both phases (0-10 min, 15-40 min)
Experimental: Compound 4 was assessed in the rat formalin inflammatory model. The number of flicks/licks of a male CD-1 mouse in the acute phase 0-10 minute and the inflammatory phase from 15-40 min after intraplantar administration of 50 μL of 5% formalin was recorded. […] Data is presented over the duration of the observation periods in 2 minute bins.

[12] = rat, 6 h, 1000 ng/mL
Experimental: Plasma was collected by the biomaterial vendor and kept frozen at −20° C.
The samples were analyzed by HPLC separation and mass spectrometry detection for prodrug amount, relative to a baseline time 0 control sample. Triplicate samples were generated at each time point and the peak area response was averaged and converted to a percent of baseline control.

[13] = tested on: MES induced seizures; experiment: Maximal electroshock (MES) test in CF-1 mice; format: in vivo, mouse; conditions: IP 1.5, 3, 6, 12 and 24 mg/kg
Experimental: All treatments were administered 30 minutes prior to MES, except for Phenytoin which was administered 1 h prior.
as §5

CCOC(=O)Nc1ccc(NCc2ccc(F)cc2)cc1N [Compound 1, Ezogabine]
Cmax/D, analyte Cmpd 1 [1]: 148 ng/mL/mg/kg
AUClast/D, analyte Cmpd 1 ([1]; AUClast 6 h): 190 ng·h/mL/mg/kg
Time within which compound degrades with light [2]: 3 to 7 days
Day by which solution was turning light purple (indicating degradation) ([3]; 5 mg/mL, acid solutions, room temperature): up to 2 Day
Day at which solution began turning purple ([3]; 5 mg/mL, organic solvent solutions, room temperature): ≥ 7 days
Adverse reaction rate: abnormal coordination [4]: 7%
Adverse reaction rate: aphasia [4]: 4%
Adverse reaction rate: asthenia [4]: 5%
Adverse reaction rate: balance disorder [4]: 4%
Adverse reaction rate: blurred vision [4]: 5%
Adverse reaction rate: confusional state [4]: 9%
Adverse reaction rate: diplopia [4]: 7%
Adverse reaction rate: disturbance in attention [4]: 6%
Adverse reaction rate: dizziness [4]: 23%
Adverse reaction rate: dysarthria [4]: 4%
Adverse reaction rate: fatigue [4]: 15%
Adverse reaction rate: gait disturbance [4]: 4%
Adverse reaction rate: memory impairment [4]: 6%
Adverse reaction rate: somnolence [4]: 22%
Adverse reaction rate: tremor [4]: 8%
Adverse reaction rate: vertigo [4]: 8%
Cmax/D, analyte Cmpd 1 [5]: 44.8 ng/mL/mg/kg
AUClast/D, analyte Cmpd 1 ([5]; AUClast […] h): 280 ng·h/mL/mg/kg

CCOC(=O)Nc1ccc(NCc2ccc(F)cc2)cc1NC(=O)OC(C)OC(=O)C(C)C (stereo not shown) [Compound 3]
Mechanical hypersensitivity versus baseline ([6]; oral 5 mg/kg): 95% confidence intervals did not cross the baseline mean
Gram force to paw lift (von Frey) ([6]; oral 40 mg/kg, 1 h after pretreatment): increased the gram force to paw lift significantly
Reduction of latency of neuropathic ipsilateral paw withdrawal (pin prick) ([6]; oral 40 mg/kg, 1 h after pretreatment, p=0.0003): 9.2 s
AUClast/D, analyte = dosed prodrug [7]: 0.0136 ng·h/mL/mg/kg
Stability in solvent ([8]; 0.1 N HCl, over 4 days): appears to be stable
Stability in solvent ([8]; ethanol and methanol): stable through 3 days
Plasma concentration of Compound 1 relative to administration of Compound 1 alone [9]: 5.5 fold
Colour of solution ([3]; 5 mg/mL, 0.1 N HCl): turned a light tan
Colour of solution ([3]; 5 mg/mL, 1 N HCl): turned a golden yellow
Solution clear and colorless through ([3]; 5 mg/mL, organic solvents): ≥ 18 days
Degradation / conversion to ezogabine in solution ([3]; 5 mg/mL): converts to ezogabine under acidic conditions but does not in organic solvent
Ezogabine Area ([3]; 0.1N HCl, 433 h): 400 mAU
Ezogabine Area ([3]; Acetonitrile, 435 h): 51 mAU
Ezogabine Area ([3]; Ethanol, 390 h): 43 mAU
Ezogabine Area ([3]; Methanol, 435 h): 41 mAU

CCOC(=O)Nc1ccc(NCc2ccc(F)cc2)cc1NC(=O)[C@@H](N)CCCCN [Compound 4]
Protection from MES seizures ([10]; 2 through 8 hours post dose): fully protected
Protection from MES seizures ([10]; 1 h post dose): almost fully protected
Reduction in behavioral response (flicks/licks) compared to vehicle [11]: 50%
AUClast/D, analyte = dosed prodrug [7]: 6.26 ng·h/mL/mg/kg
Exposure of ezogabine compared with ezogabine itself (dose normalized AUC) [7]: similar
Stability in plasma [12]: stable through 6 hours
Plasma concentration of Compound 1 relative to administration of Compound 1 alone [9]: 9 fold
Solution remained clear and colorless through ([3]; 5 mg/mL, all test solutions): ≥ 18 days
Degradation / conversion to ezogabine in solution ([3]; 5 mg/mL): very little degradation to ezogabine
Ezogabine Area ([3]; 0.1N HCl, 269 h): 0 mAU
Ezogabine Area ([3]; 1N HCl, 269 h): 0 mAU
Ezogabine Area ([3]; 2N HCl, 269 h): 38 mAU
Ezogabine Area ([3]; Methanol, 437 h): 0 mAU
Ezogabine Area ([3]; PBS, 435 h): 0 mAU

CCOC(=O)Nc1ccc(NCc2ccc(F)cc2)cc1NC(=O)[C@H](N)CO [Compound 6]
AUClast/D, analyte = dosed prodrug [7]: 199 ng·h/mL/mg/kg
Exposure of ezogabine compared with ezogabine itself (dose normalized AUC) [7]: similar
Solution remained clear and colorless through ([3]; 5 mg/mL, all test solutions): ≥ 18 days
Degradation / conversion to ezogabine in solution ([3]; 5 mg/mL): very little degradation to ezogabine
Ezogabine Area ([3]; 1N HCl, 437 h): 58 mAU

CCOC(=O)Nc1ccc(NCc2ccc(F)cc2)cc1NC(=O)C[C@@H](CN)CC(C)C [Compound 28]
AUClast/D, analyte = dosed prodrug [7]: 83.0 ng·h/mL/mg/kg
Exposure of ezogabine compared with ezogabine itself (dose normalized AUC) [7]: lower exposure
Concentration of prodrug relative to ezogabine ([9]; CF-1 mice, IP, 30 minutes): present at higher concentrations than ezogabine
Complete protection against MES induced seizures [13]: None of the doses showed complete protection
Solution remained clear and colorless through ([3]; 5 mg/mL, acidic solutions): ≥ 18 days
Solution remained clear and colorless through ([3]; 5 mg/mL, acidic solutions and acetonitrile): ≥ 11 days
Degradation / conversion to ezogabine in solution ([3]; 5 mg/mL): degradation to ezogabine with increasing strength of the acidic solution
Ezogabine Area ([3]; 0.1N HCl, 440 h): 0 mAU
% Remaining ([3]; 440 h, 5 mg/mL): 92.0%
Ezogabine Area ([3]; Methanol, 440 h): 0 mAU
